Laboratory results from PubChem BioAssay (NCI).
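Grown in 96-well plates, cells were treated for 48 hours with each compound at five concentrations. Insufficient inhibition: endpoint recorded as highest concentration tested. TGI denotes the concentration required for complete inhibition of growth.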

Key:
Assay in all cases: NCI tumour cell line growth inhibition, 48 h
[1] = tested on: 786-0 renal
[2] = tested on: A498 renal
[3] = tested on: A549 NSCLC
[4] = tested on: ACHN renal
[5] = tested on: CAKI-1 renal
[6] = tested on: CCRF-CEM leukemia
[7] = tested on: COLO 205 colon
[8] = tested on: DU-145 prostate
[9] = tested on: EKVX NSCLC
[10] = tested on: HCC-2998 colon
[11] = tested on: HCT-116 colon
[12] = tested on: HCT-15 colon
[13] = tested on: HL-60(TB) leukemia
[14] = tested on: HOP-62 NSCLC
[15] = tested on: HOP-92 NSCLC
[16] = tested on: HS 578T breast
[17] = tested on: HT29 colon
[18] = tested on: IGROV1 ovarian
[19] = tested on: K-562 leukemia
[20] = tested on: KM12 colon
[21] = tested on: LOX IMVI melanoma
[22] = tested on: M14 melanoma
[23] = tested on: MALME-3M melanoma
[24] = tested on: MCF7 breast
[25] = tested on: MDA-MB-231 breast
[26] = tested on: MDA-N
[27] = tested on: MOLT-4 leukemia
[28] = tested on: NCI-H23 lung
[29] = tested on: NCI-H460 lung
[30] = tested on: NCI/ADR-RES ovarian
[31] = tested on: OVCAR-3 ovarian
[32] = tested on: OVCAR-4 ovarian
[33] = tested on: OVCAR-5 ovarian
[34] = tested on: OVCAR-8 ovarian
[35] = tested on: PC-3 prostate
[36] = tested on: RPMI-8226 leukemia
[37] = tested on: SF-268 CNS
[38] = tested on: SF-295 CNS
[39] = tested on: SF-539 CNS
[40] = tested on: SK-MEL-2 melanoma
[41] = tested on: SK-MEL-28 melanoma
[42] = tested on: SK-MEL-5 melanoma
[43] = tested on: SK-OV-3 ovarian
[44] = tested on: SN12C renal
[45] = tested on: SNB-19 CNS
[46] = tested on: SNB-75 CNS
[47] = tested on: SR leukemia
[48] = tested on: SW-620 colon
[49] = tested on: T-47D breast
[50] = tested on: TK-10 renal
[51] = tested on: U251 CNS
[52] = tested on: UACC-257 melanoma
[53] = tested on: UO-31 renal
[54] = tested on: MDA-MB-435
[55] = tested on: NCI-H226 lung
[56] = tested on: NCI-H522 lung
[57] = tested on: RXF 393 renal
[58] = tested on: UACC-62 melanoma

Question: Which results are given for `C=C1CN=C(Nc2ccc(Cl)cc2)S1`?
Answer: TGI [1]: > 100 µM; TGI [2]: > 100 µM; TGI [3]: > 100 µM; TGI [4]: > 100 µM; TGI [5]: > 10 µM; TGI [6]: > 100 µM; TGI [7]: > 100 µM; TGI [8]: > 100 µM; TGI [9]: > 100 µM; TGI [10]: > 100 µM; TGI [11]: > 100 µM; TGI [12]: > 100 µM; TGI [13]: > 10 µM; TGI [14]: > 100 µM; TGI [15]: > 100 µM; TGI [16]: > 100 µM; TGI [17]: > 100 µM; TGI [18]: > 100 µM; TGI [19]: > 100 µM; TGI [20]: > 100 µM; TGI [21]: > 100 µM; TGI [22]: > 100 µM; TGI [23]: > 100 µM; TGI [24]: > 100 µM; TGI [25]: > 100 µM; TGI [26]: > 100 µM; TGI [27]: > 10 µM; TGI [28]: > 100 µM; TGI [29]: > 100 µM; TGI [30]: > 100 µM; TGI [31]: > 100 µM; TGI [32]: > 100 µM; TGI [33]: > 100 µM; TGI [34]: > 100 µM; TGI [35]: > 100 µM; TGI [36]: > 100 µM; TGI [37]: > 100 µM; TGI [38]: > 100 µM; TGI [39]: > 100 µM; TGI [40]: > 100 µM; TGI [41]: > 100 µM; TGI [42]: > 100 µM; TGI [43]: > 100 µM; TGI [44]: > 100 µM; TGI [45]: > 100 µM; TGI [46]: > 100 µM; TGI [47]: > 100 µM; TGI [48]: > 100 µM; TGI [49]: > 100 µM; TGI [50]: > 100 µM; TGI [51]: > 100 µM; TGI [52]: > 100 µM; TGI [53]: > 100 µM

Question: For `CCCCN=NNc1cn(C2OC(CO)C(O)C2O)c(=O)[nH]c1=O` (stereo not given), which TGI [1] is on record?
Answer: The TGI was > 100 µM.

Question: And the TGI [2]?
Answer: Its TGI is > 100 µM.

Question: What about the TGI [3] of the same molecule?
Answer: The TGI was > 100 µM.

Question: And the TGI [4]?
Answer: Its TGI is > 100 µM.

Question: What about the TGI [5] of the same molecule?
Answer: The TGI was > 100 µM.

Question: What about the TGI [6] of the same molecule?
Answer: The TGI was > 100 µM.

Question: And the TGI [7]?
Answer: Its TGI is > 100 µM.

Question: And the TGI [8]?
Answer: The TGI was > 100 µM.

Question: And the TGI [9]?
Answer: The TGI was > 100 µM.

Question: What about the TGI [10] of the same molecule?
Answer: The TGI was > 100 µM.

Question: What about the TGI [11] of the same molecule?
Answer: Its TGI is > 100 µM.

Question: And the TGI [12]?
Answer: The TGI was > 100 µM.

Question: What about the TGI [13] of the same molecule?
Answer: The TGI was > 100 µM.

Question: And the TGI [14]?
Answer: Its TGI is > 100 µM.

Question: And the TGI [16]?
Answer: The TGI was > 100 µM.

Question: What about the TGI [17] of the same molecule?
Answer: The TGI was > 100 µM.

Question: What about the TGI [18] of the same molecule?
Answer: The TGI was > 100 µM.

Question: And the TGI [20]?
Answer: Its TGI is > 100 µM.

Question: What about the TGI [21] of the same molecule?
Answer: Its TGI is > 100 µM.

Question: What about the TGI [22] of the same molecule?
Answer: The TGI was > 100 µM.

Question: What about the TGI [23] of the same molecule?
Answer: The TGI was > 100 µM.

Question: And the TGI [24]?
Answer: The TGI was > 100 µM.

Question: What about the TGI [25] of the same molecule?
Answer: Its TGI is > 100 µM.

Question: And the TGI [54]?
Answer: Its TGI is > 100 µM.

Question: And the TGI [26]?
Answer: The TGI was > 100 µM.

Question: What about the TGI [27] of the same molecule?
Answer: The TGI was > 100 µM.

Question: And the TGI [55]?
Answer: The TGI was > 100 µM.

Question: What about the TGI [28] of the same molecule?
Answer: Its TGI is > 100 µM.

Question: And the TGI [29]?
Answer: Its TGI is > 100 µM.

Question: And the TGI [56]?
Answer: The TGI was > 100 µM.

Question: What about the TGI [30] of the same molecule?
Answer: Its TGI is > 100 µM.

Question: And the TGI [31]?
Answer: The TGI was > 100 µM.

Question: What about the TGI [32] of the same molecule?
Answer: Its TGI is > 100 µM.

Question: And the TGI [33]?
Answer: The TGI was > 100 µM.

Question: And the TGI [34]?
Answer: Its TGI is > 100 µM.

Question: What about the TGI [35] of the same molecule?
Answer: The TGI was > 100 µM.

Question: What about the TGI [57] of the same molecule?
Answer: The TGI was > 100 µM.

Question: And the TGI [37]?
Answer: Its TGI is > 100 µM.

Question: What about the TGI [38] of the same molecule?
Answer: The TGI was > 100 µM.

Question: What about the TGI [39] of the same molecule?
Answer: Its TGI is > 100 µM.

Question: And the TGI [40]?
Answer: Its TGI is > 100 µM.

Question: And the TGI [41]?
Answer: The TGI was > 100 µM.

Question: What about the TGI [42] of the same molecule?
Answer: Its TGI is > 100 µM.

Question: What about the TGI [43] of the same molecule?
Answer: Its TGI is > 100 µM.

Question: And the TGI [44]?
Answer: Its TGI is > 100 µM.

Question: And the TGI [45]?
Answer: The TGI was > 100 µM.

Question: And the TGI [47]?
Answer: Its TGI is > 100 µM.

Question: What about the TGI [48] of the same molecule?
Answer: The TGI was > 100 µM.

Question: And the TGI [49]?
Answer: Its TGI is > 100 µM.

Question: What about the TGI [50] of the same molecule?
Answer: Its TGI is > 100 µM.

Question: And the TGI [52]?
Answer: Its TGI is > 100 µM.

Question: And the TGI [58]?
Answer: The TGI was > 100 µM.
